Measured values taken from patent US10294248B2, “Beta-lactamase inhibitors” (VenatoRx Pharmaceuticals, Inc., priority 2013, dated 2019).

How the values were obtained:
[1] = test system: E. coli ESBL4 expressing CTX-M-15; test: Broth microdilution MIC, E. coli ESBL4 CTX-M-15; format: cell-based; settings: fixed 4 μg/mL ceftazidime; CAMHB, 16-20 hours at 37° C.
Description: (§1) To determine the ability of test compounds to potentiate the inhibition of the growth of bacterial strains that produce beta-lactamase enzymes, classic cell based broth microdilution MIC assays were employed. Six bacteria strains producing beta-lactamase enzymes were used: E. coli expressing the Class A Extended Spectrum Beta-Lactamase (ESBL) CTX-M-15, E. cloacae expressing the Class C P99, K. pneumoniae expressing the Class A carbapenemase KPC-3, P. aeruginosa expressing the Class B carbapenemase VIM-2, K. pneumoniae expressing the class A carbapenemase KPC-2 and the class B carbapenemase VIM-4, and S. aureus producing the Class A penicillinase PC-1. The assay was conducted in Cation Adjusted Mueller Hinton Broth (CAMHB, BD #212322, BD Diagnostic Systems, Sparks, Md.). Bacteria strains were grown for 3-5 hours in CAMBH broth. Test compounds (Examples 1-30) were added to a microtiter plate in 2-fold serial dilutions in CAMHB in a final concentration range of 32 μg/mL to 0.25 μg/ml. An overlay of CAMHB containing a Beta-lactam was added to the compounds at a final static concentration of 4 μg/ml. […] In addition to the titration of test compounds the MICs of a panel of control beta-lactams is also tested to ensure the strains are behaving consistently from test to test. Once the test compound and antibiotics are added the plates can be inoculated according to CLSI broth microdilution method. After inoculation the plates are incubated for 16-20 hours at 37° C. then the Minimal Inhibitory Concentration (MIC) of the test compound is determined visually.
(§2) Using the methodology described above, examples of the current invention were evaluated for their ability to inhibit the growth of β-lactamase-producing bacteria in the presence of a β-lactam antibiotic.
(§3) Using the methodology described above in EXAMPLE III, exemplary compounds for Formula I or Formula Ia were evaluated for their ability to inhibit the growth of β-lactamase producing bacteria in the presence of a β-lactam antibiotic.

[2] = biological target: T1, VIM-2 metallo-β-lactamase (Class B) (Pseudomonas aeruginosa, UniProt Q9K2N0); test: β-Lactamase inhibition, VIM-2; format: biochemical; settings: nitrocefin 100 μM, 486 nm; 15 min preincubation at 37° C., PBS pH 7.4
T1 construct: made in house; host or cells: E. coli BL21(DE3)
Protocol: For Vim-2 metallo β-lactamase, the procedure was identical with the following exceptions, first the protein was not pH adjusted to pH 5 with 50 mM sodium acetate, second, the chromatography step was changed to a 5 ml Q sepharose anion exchange column pre-equilibrated with 50 mM Hepes pH 7.5, and elution of the protein was achieved by a linear gradient of NaCl (0-600 mM). Finally, the VIM-2 purification required a second run (3rd step) on the Q sepharose anion exchange column to achieve acceptable purity (>90%).
(§4) An equal volume of diluted enzyme stock was added, and the plates were incubated at 37° C. for 15 min. Nitrocefin was used as substrate for p99 AmpC, VIM-2 and OXA-1 and dispensed into each well at a final concentration of 100 μM. Absorbance at 486 nm was immediately monitored for 10 min using a Biotek Powerwave XS2 microplate spectrophotometer using the GEN5 software package (Biotek Instruments, Winooski Vt.). In an analogous fashion, imipenem was used as substrate for Kpc-2 and Cefotaxime was used for SHV-5, while changes in absorbance upon hydrolysis of the β-lactam ring were monitored at 300 nm and 260 nm respectively in UV-transparent 96-well microtiter assay plates. Maximum rates of hydrolysis were compared to those in control wells (without inhibitors), and percentages of enzyme inhibition were calculated for each concentration of inhibitor. The concentration of inhibitor needed to reduce the initial rate of hydrolysis of substrate by 50% (IC50) was calculated as the residual activity of β-lactamase at 486 nm using GraFit version 7 kinetics software package (Erithacus Software, Surrey, UK).
(§5) Using the methodology described above, examples of the current invention were evaluated for their ability to inhibit β-lactamase enzymes from all four Ambler classifications (A through D). […] NT=Not tested.

[3] = biological target: T2, KPC-2 β-lactamase (Class A carbapenemase) (Klebsiella pneumoniae, UniProt Q9F663); test: β-Lactamase inhibition, KPC-2; format: biochemical; settings: imipenem substrate, 300 nm; 15 min preincubation at 37° C., PBS pH 7.4
T2 construct: made in house; host or cells: E. coli BL21(DE3)
T2 sequence (Q9F663 25-293, looked up): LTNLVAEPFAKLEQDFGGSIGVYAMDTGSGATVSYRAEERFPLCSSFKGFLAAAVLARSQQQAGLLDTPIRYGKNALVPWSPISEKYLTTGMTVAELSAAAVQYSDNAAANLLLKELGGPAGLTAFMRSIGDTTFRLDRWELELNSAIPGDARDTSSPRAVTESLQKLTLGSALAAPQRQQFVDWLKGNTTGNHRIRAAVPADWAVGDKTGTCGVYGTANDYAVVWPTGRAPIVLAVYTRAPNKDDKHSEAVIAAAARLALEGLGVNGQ
Protocol: (§6) For SHV-5, Kpc-2, p99AmpC and OXA-1 β-lactamases, E. coli BL21(DE3) bacterial cells carrying expression plasmids (expressed as native untagged proteins) for the individual β-lactamases were grown in 1 L of Superbroth (Teknova Inc. Hollister, Calif.) supplemented with 100 μg/ml kanamycin selection and 1×5052 (0.5% glycerol, 0.05% glucose and 0.2% α-lactose) at 35° C. for 18-20 hours. Cells were harvested by centrifugation (4,000×g, 4° C., 20 min), resuspended in 50 ml of 10 mM HEPES pH 7.5 ( 1/20 of the initial volume). The cells were lysed by sonication (5 pulses of 45 seconds) at 45 W on ice. The lysates were clarified by centrifugation at 10,000×g for 40 minutes at 4° C. Samples were diluted 5-fold in 50 mM sodium acetate pH 5.0, stored overnight at 4° C., after which they were centrifuged at 10,000×g for 30 minutes to clarify, and filtered through 0.45 μm filters. The samples were loaded onto a 5 ml Capto S sepharose cation exchange column (GE Healthcare) pre-equilibrated with 50 mM sodium acetate pH 5.0. The column was washed with 5 column volumes of 50 mM sodium acetate pH 5.0 to wash out unbound protein and a linear gradient of NaCl (0 to 500 mM) was used to elute the protein (over 16 CV) from the column. Fractions were assayed for β-lactamase activity using Centa (Calbiochem, Gibbstown, N.J.) or Nitrocefin (EMD Millipore chemicals, Darmstadt, Germany) as a reporter β-lactamase substrate for activity in the isolated fractions. Active fractions were pooled, concentrated and further purified by gel filtration chromatography on a Superdex 75 prep grade gel filtration column (GE Healthcare, Piscataway, N.J.) pre-equilibrated in 50 mM Hepes pH 7.5, 150 mM NaCl. Active fractions were pooled concentrated, quantitated by BCA protein determination (Thermo Scientific, Rockford, Ill.), dialyzed into PBS and frozen at −80° C. in 20% glycerol until use.
as §4, §5

[4] = test system: S. aureus MSSA-7 producing penicillinase PC-1; test: Broth microdilution MIC, S. aureus MSSA-7 PC-1; format: cell-based; settings: for MIC of example compound in presence of fixed β-lactam: Fixed Pip, S. aureus MSSA-7 PC-1: fixed 4 μg/mL piperacillin, CAMHB, 16-20 hours at 37° C.
Description: as §1, §2, §3

[5] = biological target: T3, SHV-5 β-lactamase (Class A ESBL) (Klebsiella pneumoniae, UniProt P0A3M1); test: β-Lactamase inhibition, SHV-5; format: biochemical
T3 construct: made in house; host or cells: E. coli BL21(DE3)
T3 sequence (P0A3M1 22-286): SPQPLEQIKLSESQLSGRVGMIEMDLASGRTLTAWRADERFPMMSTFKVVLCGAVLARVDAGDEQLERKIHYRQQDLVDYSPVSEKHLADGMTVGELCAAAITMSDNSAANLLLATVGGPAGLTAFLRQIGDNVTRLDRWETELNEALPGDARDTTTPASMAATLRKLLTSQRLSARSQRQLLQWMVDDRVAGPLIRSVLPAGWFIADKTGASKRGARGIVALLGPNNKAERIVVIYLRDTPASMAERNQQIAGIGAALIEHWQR
Protocol: as §6, §4, §5

[6] = test system: K. pneumoniae 156319 expressing KPC-3; test: Broth microdilution MIC, K. pneumoniae 156319 KPC-3; format: cell-based; settings: fixed 4 μg/mL meropenem; CAMHB, 16-20 hours at 37° C.
Description: as §1, §2, §3

[7] = test system: K. pneumoniae A-1797 expressing KPC-2 and VIM-4; test: Broth microdilution MIC, K. pneumoniae A-1797 KPC-2/VIM-4; format: cell-based; settings: fixed 4 μg/mL meropenem; CAMHB, 16-20 hours at 37° C.
Description: as §1, §2, §3

[8] = biological target: T4, p99 AmpC β-lactamase (Class C) (Enterobacter cloacae, UniProt P05364); test: β-Lactamase inhibition, p99 AmpC; format: biochemical
T4 construct: made in house; host or cells: E. coli BL21(DE3)
T4 sequence (P05364 21-381): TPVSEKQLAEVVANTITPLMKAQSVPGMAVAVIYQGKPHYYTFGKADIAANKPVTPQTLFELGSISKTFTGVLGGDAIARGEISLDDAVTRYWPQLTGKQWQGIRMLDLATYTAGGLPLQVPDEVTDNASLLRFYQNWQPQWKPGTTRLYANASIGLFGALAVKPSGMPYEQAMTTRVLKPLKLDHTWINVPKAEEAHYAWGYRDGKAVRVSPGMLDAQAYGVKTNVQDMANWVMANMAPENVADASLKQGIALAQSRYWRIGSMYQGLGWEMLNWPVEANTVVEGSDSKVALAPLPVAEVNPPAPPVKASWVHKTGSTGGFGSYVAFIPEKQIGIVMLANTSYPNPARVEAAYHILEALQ
Protocol: as §6, §4, §5

[9] = test system: E. cloacae 144200 expressing Class C P99 AmpC; test: Broth microdilution MIC, E. cloacae 144200 p99 AmpC; format: cell-based; settings: fixed 4 μg/mL ceftazidime; CAMHB, 16-20 hours at 37° C.
Description: as §1, §2, §3

[10] = test system: P. aeruginosa Ps296 expressing VIM-2; test: Broth microdilution MIC, P. aeruginosa Ps296 VIM-2; format: cell-based; settings: fixed 4 μg/mL meropenem; CAMHB, 16-20 hours at 37° C.
Description: as §1, §2, §3

[11] = biological target: T5, OXA-1 β-lactamase (Class D oxacillinase) (Escherichia coli, UniProt P13661); test: β-Lactamase inhibition, OXA-1; format: biochemical; settings: nitrocefin 100 μM, 486 nm; 15 min preincubation at 37° C., PBS pH 7.4
T5 construct: made in house; host or cells: E. coli BL21(DE3)
T5 sequence (P13661 26-276): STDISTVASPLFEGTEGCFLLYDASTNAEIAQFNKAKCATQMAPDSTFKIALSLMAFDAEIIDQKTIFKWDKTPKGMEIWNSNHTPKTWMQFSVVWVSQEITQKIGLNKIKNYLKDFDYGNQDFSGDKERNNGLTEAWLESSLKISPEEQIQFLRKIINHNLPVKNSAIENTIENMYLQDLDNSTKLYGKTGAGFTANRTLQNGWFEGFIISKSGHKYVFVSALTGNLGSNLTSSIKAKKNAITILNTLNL
Protocol: as §6, §4, §5

MIC ([4]; Staphylococcus aureus, MSSA, partner antibiotic alone, no β-lactamase inhibitor) [µg/mL] | SMILES | MIC of example compound in presence of fixed β-lactam: Fixed CAZ, E. coli ESBL4 CTX-M-15 [1] | IC50 [2] [nM] | IC50 [3] [nM] | MIC of example compound in presence of fixed β-lactam: Fixed Pip, S. aureus MSSA-7 PC-1 [4] | IC50 [5] [nM] | MIC of example compound in presence of fixed β-lactam: Fixed Mero, K. P. 156319 KPC-3 [6] | MIC of example compound in presence of fixed β-lactam: Fixed Mero, K. P. A-1797 KPC-2 VIM-4 [7] | IC50 [8] [nM] | MIC of example compound in presence of fixed β-lactam: Fixed CAZ, E. cl. 144200 p99 AmpC [9] | MIC of example compound in presence of fixed β-lactam: Fixed Mero, P. aerug. Ps296 VIM-2 [10] | IC50 [11] [nM]
– | NCCCN1CCC(CC(=O)N[C@H]2Cc3cccc(C(=O)O)c3OB2O)CC1 [Example 42, 3-{2-[1-(3-Amino-propyl)-piperidin-4-yl]-acetylamino}-2-hydroxy-3,4-dihydro-2H-benzo[e][1,2]oxaborinine-8-carboxylic acid] | C (the MIC in the presence of <4 μg/mL of a β-lactamase inhibitor) | 1000 to 10000 | < 100 | C (the MIC in the presence of <4 μg/mL of a β-lactamase inhibitor) | < 100 | C (the MIC in the presence of <4 μg/mL of a β-lactamase inhibitor) | A (an MIC of the fixed β-lactam antibiotic in the presence of >32 μg/mL of a β-lactamase inhibitor) | < 100 | C (the MIC in the presence of <4 μg/mL of a β-lactamase inhibitor) | B (the MIC in the presence of between 8 and 32 μg/mL of a β-lactamase inhibitor) | –
64 | CCN1CCN(C(=O)N[C@@H](C(=O)N[C@@H]2C(=O)N3[C@@H]2SC(C)(C)[C@@H]3C(=O)O)c2ccccc2)C(=O)C1=O [Piperacillin, reference compound] | – | – | – | – | – | – | – | – | – | – | –
– | NC1CCN(CC(=O)N[C@H]2Cc3cccc(C(=O)O)c3OB2O)CC1 [Example 1, 3-[2-(4-Amino-piperidin-1-yl)-acetylamino]-2-hydroxy-3,4-dihydro-2H-benzo[e][1,2]oxaborinine-8-carboxylic acid] | C (the MIC in the presence of <4 μg/mL of a β-lactamase inhibitor) | 10000 to 100000 | < 100 | C (the MIC in the presence of <4 μg/mL of a β-lactamase inhibitor) | < 100 | – | A (an MIC of the fixed β-lactam antibiotic in the presence of >32 μg/mL of a β-lactamase inhibitor) | < 100 | B (the MIC in the presence of between 8 and 32 μg/mL of a β-lactamase inhibitor) | A (an MIC of the fixed β-lactam antibiotic in the presence of >32 μg/mL of a β-lactamase inhibitor) | 100 to 1000
